{"source": "patent US20260125374A1", "about": "“PI3K-ALPHA INHIBITORS AND METHODS OF MAKING AND USING THE SAME” (Relay Therapeutics, Inc., priority 2021, published 2026)", "test": "Salt screening (XRPD, chiral purity of hits)", "type": "physicochemical", "protocol": "Based on the pKa of I-1 free form, 23 counter ions were selected as salt/cocrystal forming agents. Methanol, acetone and isopropyl acetate were used as screening solvents. 1.0 equivalent of selected counter ions/coformers was applied for salt screening. Slurry equilibration, slow evaporation and anti-solvent addition were used as crystallization methods. In total, about 70 screening experiments were conducted.\nAbout 50 mg of I-1 Form A were added to a suitable amount of solvent and 1.0 equivalent of counter ions were added under stirring at 50° C. for 2 hours and then at 25° C. for at least 12 hours. MeOH, acetone and IPAc were used as screening solvents.\nObtained suspensions were taken out and centrifuged. Solids obtained were analyzed by XRPD and salt screening results were summarized in Table 5.1, Table 5.2, and Table 5.3.", "key": {"[1]": {"conditions": "crystalline hits of salt screening, listed as III-2 Form A"}, "[2]": {"conditions": "crystalline hits of salt screening, listed as III-2 Form B"}, "[3]": {"conditions": "crystalline hits of salt screening, listed as III-6 Form A"}, "[4]": {"conditions": "crystalline hits of salt screening, listed as I-2 Form A"}, "[5]": {"conditions": "crystalline hit dried at 50° C. for 21 h"}, "[6]": {"conditions": "crystalline hits of salt screening, listed as I-5 Form A"}, "[7]": {"conditions": "crystalline hits of salt screening, listed as I-5 Form B"}}}
{"compound": "N#Cc1c(-c2cc(NC(=O)c3cc(F)cc(C(F)(F)F)c3)c3c(c2)C(=O)NC3c2cc(F)ccc2Cl)ccc2ncnn12", "note": "(centres unmarked) [III-2]", "values": [{"measurement": "Salt screening result (slurry crystallization)", "setting": "1.0 equiv. HCl, ACN (second block of table)", "result": "+ (III-2 Form B) (Salt hits)"}, {"measurement": "Salt screening result (slurry crystallization)", "setting": "1.0 equiv. HCl, Acetone", "result": "+ (III-2 Form A) (Salt hits)"}, {"measurement": "Salt screening result (slurry crystallization)", "setting": "1.0 equiv. HCl, Acetone (second block of table)", "result": "+ (III-2 Form A) (Salt hits)"}, {"measurement": "Chiral purity (by HPLC)", "setting": "[1]", "result": 30.8, "unit": "%"}, {"measurement": "Crystallinity (By XRPD)", "setting": "[1]", "result": "Medium"}, {"measurement": "Chiral purity (by HPLC)", "setting": "[2]", "result": 20.3, "unit": "%"}, {"measurement": "Crystallinity (By XRPD)", "setting": "[2]", "result": "Low"}, {"measurement": "Chiral purity of salt screening solid", "setting": "slurry, 1.0 equiv. HCl, ACN (second block of table)", "result": "Chiral purity: 20.2%"}, {"measurement": "Chiral purity of salt screening solid", "setting": "slurry, 1.0 equiv. HCl, Acetone", "result": "Chiral purity: 30.8%"}, {"measurement": "Chiral purity of salt screening solid", "setting": "slurry, 1.0 equiv. HCl, Acetone (second block of table)", "result": "Chiral purity: 45.4%"}]}
{"compound": "N#Cc1c(-c2cc(NC(=O)c3cc(F)cc(C(F)(F)F)c3)c3c(c2)C(=O)NC3c2cc(F)ccc2Cl)ccc2ncnn12", "note": "(centres unmarked) [III-6]", "values": [{"measurement": "Salt screening result (slurry crystallization)", "setting": "1.0 equiv. naphthalene-2-sulfonic acid, Acetone", "result": "+ (Salt hits)"}, {"measurement": "Chiral purity (by HPLC)", "setting": "[3]", "result": 43.2, "unit": "%"}, {"measurement": "Crystallinity (By XRPD)", "setting": "[3]", "result": "low"}, {"measurement": "Chiral purity of salt screening solid", "setting": "slurry, 1.0 equiv. naphthalene-2-sulfonic acid, Acetone", "result": "Chiral purity: 43.2%"}]}
{"compound": "N#Cc1c(-c2cc(NC(=O)c3cc(F)cc(C(F)(F)F)c3)c3c(c2)C(=O)N[C@H]3c2cc(F)ccc2Cl)ccc2ncnn12", "note": "[Compound I-2]", "values": [{"measurement": "Salt screening result (slurry crystallization)", "setting": "1.0 equiv. HCl, Isopropyl acetate", "result": "+ (Salt hits)"}, {"measurement": "Chiral purity (by HPLC)", "setting": "[4]", "result": 89.7, "unit": "%"}, {"measurement": "Crystallinity (By XRPD)", "setting": "[4]", "result": "Low"}, {"measurement": "Chiral purity of salt screening solid", "setting": "slurry, 1.0 equiv. HCl, Isopropyl acetate", "result": "Chiral purity: 89.7%"}]}
{"compound": "N#Cc1c(-c2cc(NC(=O)c3cc(F)cc(C(F)(F)F)c3)c3c(c2)C(=O)N[C@H]3c2cc(F)ccc2Cl)ccc2ncnn12", "note": "[Compound I-5]", "values": [{"measurement": "Salt screening result (anti-solvent)", "setting": "1.0 equiv. naphthalene-1,5-disulfonic acid, Acetone/MTBE", "result": "+ (I-5 Form B) (Salt hits)"}, {"measurement": "Chiral purity of salt screening solid", "setting": "anti-solvent, 1.0 equiv. naphthalene-1,5-disulfonic acid, Acetone/MTBE", "result": "Chiral purity: 88.3%"}, {"measurement": "Chiral purity (by HPLC)", "setting": "[5]", "result": "C. for 21 h: 100%"}, {"measurement": "Crystallinity (By XRPD)", "setting": "[5]", "result": "low crystallinity"}, {"measurement": "Chiral purity (by HPLC)", "setting": "[6]", "result": 100, "unit": "% dried at 50°"}, {"measurement": "Crystallinity (By XRPD)", "setting": "[6]", "result": "Medium crystallinity"}, {"measurement": "Chiral purity (by HPLC)", "setting": "[7]", "result": 88.3, "unit": "%"}, {"measurement": "Crystallinity (By XRPD)", "setting": "[7]", "result": "Medium"}]}
